According to patent US8192962B2, “Processes for detecting toxic substances” (Daikin Industries, Ltd., priority 2001, dated 2012):

System: Mitochondria-located protein genes
Test: DNA chip mRNA expression in yeast, mitochondria-located protein genes (Table 2)
Format: cell-based, Saccharomyces cerevisiae S288C
Details: cells incubated two hours with the chemical substance
In short: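 Measured as treated-to-untreated fluorescence ratio on a full-genome yeast DNA chip. Cells (S288C, YPD, 25° C.) were exposed in log phase for two hours to one chemical, dosed to curb growth without killing.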

CCCCCCCCCCCCc1ccc(S(=O)(=O)[O-])cc1.[Na+] [(17), sodium dodecylbenzosulfonate]
The level of expressed mRNA in the presence of chemical substance/The level of expressed mRNA in the absence of chemical substance (yeast gene YAL039C): 1.4
The level of expressed mRNA in the presence of chemical substance/The level of expressed mRNA in the absence of chemical substance (yeast gene YBL022C): 0.9
The level of expressed mRNA in the presence of chemical substance/The level of expressed mRNA in the absence of chemical substance (yeast gene YBL030C): 1.0
The level of expressed mRNA in the presence of chemical substance/The level of expressed mRNA in the absence of chemical substance (yeast gene YBL038W): 1.2
The level of expressed mRNA in the presence of chemical substance/The level of expressed mRNA in the absence of chemical substance (yeast gene YBL099W): 0.7
The level of expressed mRNA in the presence of chemical substance/The level of expressed mRNA in the absence of chemical substance (yeast gene YBR003W): 1.1
The level of expressed mRNA in the presence of chemical substance/The level of expressed mRNA in the absence of chemical substance (yeast gene YBR044C): 0.9
The level of expressed mRNA in the presence of chemical substance/The level of expressed mRNA in the absence of chemical substance (yeast gene YBR091C): 1.0
The level of expressed mRNA in the presence of chemical substance/The level of expressed mRNA in the absence of chemical substance (yeast gene YBR122C): 0.9
The level of expressed mRNA in the presence of chemical substance/The level of expressed mRNA in the absence of chemical substance (yeast gene YBR185C): 0.8
The level of expressed mRNA in the presence of chemical substance/The level of expressed mRNA in the absence of chemical substance (yeast gene YBR221C): 0.9
The level of expressed mRNA in the presence of chemical substance/The level of expressed mRNA in the absence of chemical substance (yeast gene YBR251W): 0.9
The level of expressed mRNA in the presence of chemical substance/The level of expressed mRNA in the absence of chemical substance (yeast gene YBR282W): 0.9
The level of expressed mRNA in the presence of chemical substance/The level of expressed mRNA in the absence of chemical substance (yeast gene YCL057W): 0.9
The level of expressed mRNA in the presence of chemical substance/The level of expressed mRNA in the absence of chemical substance (yeast gene YCR046C): 1.3
The level of expressed mRNA in the presence of chemical substance/The level of expressed mRNA in the absence of chemical substance (yeast gene YCR083W): 1.3
The level of expressed mRNA in the presence of chemical substance/The level of expressed mRNA in the absence of chemical substance (yeast gene YDL067C): 1.2
The level of expressed mRNA in the presence of chemical substance/The level of expressed mRNA in the absence of chemical substance (yeast gene YDL181W): 1.5
The level of expressed mRNA in the presence of chemical substance/The level of expressed mRNA in the absence of chemical substance (yeast gene YDL198C): 1.5
The level of expressed mRNA in the presence of chemical substance/The level of expressed mRNA in the absence of chemical substance (yeast gene YDR079W): 1.1
The level of expressed mRNA in the presence of chemical substance/The level of expressed mRNA in the absence of chemical substance (yeast gene YDR178W): 1.2
The level of expressed mRNA in the presence of chemical substance/The level of expressed mRNA in the absence of chemical substance (yeast gene YDR231C): 1.2
The level of expressed mRNA in the presence of chemical substance/The level of expressed mRNA in the absence of chemical substance (yeast gene YDR258C): 1.3
The level of expressed mRNA in the presence of chemical substance/The level of expressed mRNA in the absence of chemical substance (yeast gene YDR298C): 1.1
The level of expressed mRNA in the presence of chemical substance/The level of expressed mRNA in the absence of chemical substance (yeast gene YDR347W): 0.9
The level of expressed mRNA in the presence of chemical substance/The level of expressed mRNA in the absence of chemical substance (yeast gene YDR377W): 1.2
The level of expressed mRNA in the presence of chemical substance/The level of expressed mRNA in the absence of chemical substance (yeast gene YDR529C): 1.0
The level of expressed mRNA in the presence of chemical substance/The level of expressed mRNA in the absence of chemical substance (yeast gene YEL024W): 1.1
The level of expressed mRNA in the presence of chemical substance/The level of expressed mRNA in the absence of chemical substance (yeast gene YEL039C): 0.7
The level of expressed mRNA in the presence of chemical substance/The level of expressed mRNA in the absence of chemical substance (yeast gene YER178W): 1.1
The level of expressed mRNA in the presence of chemical substance/The level of expressed mRNA in the absence of chemical substance (yeast gene YFL016C): 1.2
The level of expressed mRNA in the presence of chemical substance/The level of expressed mRNA in the absence of chemical substance (yeast gene YGL018C): 0.8
The level of expressed mRNA in the presence of chemical substance/The level of expressed mRNA in the absence of chemical substance (yeast gene YGL187C): 0.9
The level of expressed mRNA in the presence of chemical substance/The level of expressed mRNA in the absence of chemical substance (yeast gene YGL191W): 1.2
The level of expressed mRNA in the presence of chemical substance/The level of expressed mRNA in the absence of chemical substance (yeast gene YGR008C): 1.7
The level of expressed mRNA in the presence of chemical substance/The level of expressed mRNA in the absence of chemical substance (yeast gene YGR028W): 1.5
The level of expressed mRNA in the presence of chemical substance/The level of expressed mRNA in the absence of chemical substance (yeast gene YGR062C): 0.9
The level of expressed mRNA in the presence of chemical substance/The level of expressed mRNA in the absence of chemical substance (yeast gene YGR076C): 0.9
The level of expressed mRNA in the presence of chemical substance/The level of expressed mRNA in the absence of chemical substance (yeast gene YGR082W): 0.9
The level of expressed mRNA in the presence of chemical substance/The level of expressed mRNA in the absence of chemical substance (yeast gene YGR174C): 1.3
The level of expressed mRNA in the presence of chemical substance/The level of expressed mRNA in the absence of chemical substance (yeast gene YGR244C): 1.9
The level of expressed mRNA in the presence of chemical substance/The level of expressed mRNA in the absence of chemical substance (yeast gene YHR008C): 0.9
The level of expressed mRNA in the presence of chemical substance/The level of expressed mRNA in the absence of chemical substance (yeast gene YIL155C): 1.1
The level of expressed mRNA in the presence of chemical substance/The level of expressed mRNA in the absence of chemical substance (yeast gene YJL096W): 1.1
The level of expressed mRNA in the presence of chemical substance/The level of expressed mRNA in the absence of chemical substance (yeast gene YJL102W): 1.0
The level of expressed mRNA in the presence of chemical substance/The level of expressed mRNA in the absence of chemical substance (yeast gene YJL133W): 0.8
The level of expressed mRNA in the presence of chemical substance/The level of expressed mRNA in the absence of chemical substance (yeast gene YJL166W): 1.7
The level of expressed mRNA in the presence of chemical substance/The level of expressed mRNA in the absence of chemical substance (yeast gene YJL180C): 0.9
The level of expressed mRNA in the presence of chemical substance/The level of expressed mRNA in the absence of chemical substance (yeast gene YJR045C): 0.7
The level of expressed mRNA in the presence of chemical substance/The level of expressed mRNA in the absence of chemical substance (yeast gene YJR077C): 1.0
